Source: ChEMBL document CHEMBL3639270, “Therapeutic agents” (2013)

Target: E3 ubiquitin-protein ligase Mdm2 (Homo sapiens, UniProt Q00987)
Experiment: ELISA Assay: Streptavidin-coated 96-well plates are used to immobilise a biotin-tagged IP3 p53-derived peptide ([…]). This is a peptide analogue derived from the p53 binding site for MDM2 ([…]). […] Aliquots of MDM2 generated by in vitro translation are pre-incubated for 20 minutes at room temperature (i.e. 20-25C.) with test compounds and controls, before transfer into the IP3-coated 96-well plates.

Sequence of E3 ubiquitin-protein ligase Mdm2 (Q00987 whole entry): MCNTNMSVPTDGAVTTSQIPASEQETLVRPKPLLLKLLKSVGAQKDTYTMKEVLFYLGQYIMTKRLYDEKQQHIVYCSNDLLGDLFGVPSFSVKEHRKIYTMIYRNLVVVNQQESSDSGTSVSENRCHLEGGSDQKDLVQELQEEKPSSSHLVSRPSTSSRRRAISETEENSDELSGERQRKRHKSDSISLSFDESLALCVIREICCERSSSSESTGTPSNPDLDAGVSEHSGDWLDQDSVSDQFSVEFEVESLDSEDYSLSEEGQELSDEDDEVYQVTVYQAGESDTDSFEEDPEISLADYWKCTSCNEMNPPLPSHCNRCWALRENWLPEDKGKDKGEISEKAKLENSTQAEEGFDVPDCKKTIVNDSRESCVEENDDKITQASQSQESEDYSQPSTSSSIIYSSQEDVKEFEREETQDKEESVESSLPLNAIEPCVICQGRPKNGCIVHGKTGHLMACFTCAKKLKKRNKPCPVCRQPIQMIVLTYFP

- IC50: 375 nM
SMILES: O=C1c2ccccc2C(O[C@H]2CCC[C@@H](O)CCC2)(c2ccc(Cl)cc2)N1Cc1ccc([N+](=O)[O-])cc1 (stereo partly specified)
